Data on six compounds can be found in US20170058314A1, “NOVEL METHODOLOGY FOR IDENTIFYING ANTI-PERSISTER ACTIVITY AND ANTIMICROBIAL SUSCEPTIBILITY FOR BORRELIA BURGDORFERI AND OTHER BACTERIA” (priority 2014, published 2017).

Series [1] has as its system B. burgdorferi (growing, strain B31). Nature of the series: MIC determination, standard microdilution method. Type of series: cell-based, Borrelia burgdorferi. For orientation: Dilution methods test growth across graded concentrations, often in twofold steps.
Series [2] has as its system stationary phase B. burgdorferi persisters (strain B31). The series is described as follows: NCI compound library screen, SYBR Green I/PI assay (plate reader). The following applies: for viability at 20 µM / viability at 50 µM: Borreliella burgdorferi, 168 h.
Series [3] shares this test system. Nature of the series: NCI compound library rescreen, epifluorescence microscope counting. To be noted: for viability at 50 µM / viability at 20 µM: Borreliella burgdorferi, 168 h; for viability at 20 µM: read-out: Residual viable cells (%) 20 μM (epifluorescence microscope counting).
Where [4] appears, read: read-out: Residual viable cells (%) 20 μM (SYBR Green I/PI assay), 20 μM, seven day old stationary phase, 7 days.
[5] abbreviates: read-out: Residual viable cells (SYBR Green I/PI assay), 50 μM, seven day old stationary phase culture, 7 days.
Setting [6] is: read-out: Activity against persisters (residual viable cell percentage).
Setting [7] is: read-out: Residual viable cells (%) 50 μM (epifluorescence microscope counting).
Where [8] appears, read: read-out: Residual viable cells (epifluorescence microscope counting).
The mark [9] stands for this setting: Borreliella burgdorferi, growing B. burgdorferi, read-out: MIC.
Where [10] appears, read: read-out: Residual viable cells (SYBR Green I/PI assay).
Setting [11] is: 20 μM, seven day old stationary phase, 7 days.
Where [12] appears, read: 50 μM, seven day old stationary phase culture, 7 days.

Converted amounts (≈) assume the structure as drawn. Where two headings read alike, the source gives them in different places.

Broadly, the MIC is the smallest concentration in the dilution series that meets the test's criterion for growth inhibition.

`CCCCCC1=C/C(=C/c2[nH]c(-c3ccc[nH]3)cc2OC)N=C1C` [NSC47147, Prodigiosin]: the MIC in series [1] (Borreliella burgdorferi) was at most 0.2 µg/mL; in series [1] (growing B. burgdorferi), “≦0.2 μg/mL”. Besides, the viability at 20 µM in series [2] (setting [4]) worked out at 0%; in series [3], 45%. The viability at 50 µM in series [2] (setting [5]) was found to be 0%; in series [3] (setting [6]), 24%; in series [3] (setting [7]), 24%; in series [3] (setting [8]), 24%.

Regarding `COc1cccc2c1C(=O)c1c(O)c3c(c(O)c1C2=O)C[C@@](O)(/C(C)=N\O)C[C@@H]3OC1CC(N)C(O)C(C)O1.Cl` (stereo partly shown) [NSC143491, Daunomycin 3-oxime hydrochloride], in series [1] (setting [9]), the MIC is at most 0.36 µg/mL. Moreover, the viability at 50 µM came out at 0% in series [2] (setting [10]), 6% in series [3] (setting [6]) and 6% in series [3] (setting [8]).

`CC[C@@]1(O)C[C@H](O[C@H]2C[C@H](N(C)C)[C@H](O)[C@H](C)O2)c2c(cc3c(c2O)C(=O)c2c(O)ccc(O)c2C3=O)[C@H]1C(=O)OC` [NSC267229, Pyrromycin] yielded a minimal inhibitory concentration (MIC) in series [1] (growing B. burgdorferi) of 0.37 to 0.73 µg/mL. The “Residual viable cells (%) 20 μM (SYBR Green I/PI assay)” value in series [2] (setting [11]) stood at 6%. In series [2] (setting [12]), the “Residual viable cells (SYBR Green I/PI assay)” value is on record as 0%. Further, the “Residual viable cells (%) 20 μM (epifluorescence microscope counting)” value in series [3] (setting [11]) came to 20%. Further, the “Residual viable cells (epifluorescence microscope counting)” value in series [3] (setting [12]) was 21%. Further, the “Residual viable cells (%) 50 μM (epifluorescence microscope counting)” value in series [3] (50 μM, seven day old stationary phase, 7 days) was determined as 21%. For the same compound, in series [3] (stationary phase persisters), the “Activity against persisters (residual viable cell percentage)” value was found to be 21%.

For the compound `CC1OC(CC(=O)O)CC2=C1C(=O)c1c(O)cccc1C2=O` (stereo not shown) [NSC267461, Nanaomycin], in series [1] (setting [9]), the MIC lay within 0.76 to 1.57 µg/mL (≈ 2.51 to 5.19 µM). Further, the viability at 20 µM was found to be 39% in series [2] (setting [4]) and 45% in series [3]. Moreover, the viability at 50 µM was found to be 34% in series [2] (setting [5]), 26% in series [3] (setting [6]), 26% in series [3] (setting [7]) and 26% in series [3] (setting [8]).

For the compound `O=C1c2ccccc2C(=O)c2c(NCCNCCO)ccc(O)c21` [NSC299187, 9,10-Anthracenedione, 1-hydroxy-4-[[2-[(2-hydroxyethyl)amino]ethyl]amino]-], the MIC in series [1] (setting [9]) is 3.26 to 6.52 µg/mL (≈ 9.99 to 20 µM). In addition, the results for the viability at 50 µM in series [2] (setting [10]), in series [3] (setting [6]) and in series [3] (setting [8]) were 5%, 13% and 13%, respectively.

As for `CC1Oc2cc3c(-c4c(O)cc(O)c5c(O)c6c(cc45)OC(C)C(C)C6=O)c(O)cc(O)c3c(O)c2C(=O)C1C` (stereo not shown) [NSC345647, Chaetochromin], the minimum inhibitory concentration (MIC) in series [1] (setting [9]) lay in the range of 2.74 to 5.47 µg/mL (≈ 5.01 to 10 µM). In addition, the viability at 20 µM in series [2] (read-out: Residual viable cells (%) 20 μM (SYBR Green I/PI assay)) came out at 31%; in series [3], 33%. Besides, the viability at 50 µM in series [2] (setting [10]) was found to be 8%; in series [3] (setting [6]) it was 22%; in series [3] (setting [7]), 22%; in series [3] (setting [8]) it was 22%.
